Tests used:
[1] = molecular target: Acetylcholinesterase (Homo sapiens, UniProt P22303)
Description: Inhibition of human AChE assessed as acetylthiocholine hydrolysis

[2] = molecular target: Cholinesterase (Homo sapiens, UniProt P06276)
Description: Inhibition of human BChE assessed as acetylthiocholine hydrolysis

[3] = molecular target: Amyloid-beta precursor protein (Homo sapiens, UniProt P05067)
Description: Inhibition of self mediated amyloid beta (1 to 42) aggregation (unknown origin) after 10 hrs by ThT-based fluorescence assay

[4] = molecular target: Beta-secretase 1 (Homo sapiens, UniProt P56817)
Beta-secretase 1, sequence (P56817 whole entry): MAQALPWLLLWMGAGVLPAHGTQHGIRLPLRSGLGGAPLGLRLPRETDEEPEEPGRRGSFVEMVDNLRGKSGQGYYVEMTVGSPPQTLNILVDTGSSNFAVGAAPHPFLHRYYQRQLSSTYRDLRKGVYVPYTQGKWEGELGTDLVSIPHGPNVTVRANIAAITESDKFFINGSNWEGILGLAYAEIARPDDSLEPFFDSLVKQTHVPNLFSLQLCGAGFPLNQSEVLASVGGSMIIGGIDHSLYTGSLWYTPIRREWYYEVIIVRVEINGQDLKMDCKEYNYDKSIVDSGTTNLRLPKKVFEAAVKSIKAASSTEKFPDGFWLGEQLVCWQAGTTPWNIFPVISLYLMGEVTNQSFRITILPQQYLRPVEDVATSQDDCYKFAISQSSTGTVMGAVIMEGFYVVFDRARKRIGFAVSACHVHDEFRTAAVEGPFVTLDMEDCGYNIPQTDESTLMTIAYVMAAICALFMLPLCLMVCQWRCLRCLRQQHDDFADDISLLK

Acetylcholinesterase, sequence (P22303 whole entry): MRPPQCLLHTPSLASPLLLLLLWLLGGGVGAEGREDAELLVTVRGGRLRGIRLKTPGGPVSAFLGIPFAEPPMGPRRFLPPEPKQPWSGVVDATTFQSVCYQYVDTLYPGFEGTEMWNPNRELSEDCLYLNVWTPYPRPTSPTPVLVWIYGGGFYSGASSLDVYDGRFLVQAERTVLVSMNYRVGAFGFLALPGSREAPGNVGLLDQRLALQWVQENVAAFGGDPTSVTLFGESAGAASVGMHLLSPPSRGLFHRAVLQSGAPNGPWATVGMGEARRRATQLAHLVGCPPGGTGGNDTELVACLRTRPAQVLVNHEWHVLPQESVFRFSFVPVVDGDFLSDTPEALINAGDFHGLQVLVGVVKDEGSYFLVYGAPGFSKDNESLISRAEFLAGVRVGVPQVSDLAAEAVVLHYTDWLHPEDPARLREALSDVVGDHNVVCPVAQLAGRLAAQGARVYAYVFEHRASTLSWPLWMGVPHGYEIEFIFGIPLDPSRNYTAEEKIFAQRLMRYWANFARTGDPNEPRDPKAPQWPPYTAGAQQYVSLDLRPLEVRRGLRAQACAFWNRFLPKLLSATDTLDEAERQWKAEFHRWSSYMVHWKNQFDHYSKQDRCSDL
Amyloid-beta precursor protein, sequence (P05067 whole entry): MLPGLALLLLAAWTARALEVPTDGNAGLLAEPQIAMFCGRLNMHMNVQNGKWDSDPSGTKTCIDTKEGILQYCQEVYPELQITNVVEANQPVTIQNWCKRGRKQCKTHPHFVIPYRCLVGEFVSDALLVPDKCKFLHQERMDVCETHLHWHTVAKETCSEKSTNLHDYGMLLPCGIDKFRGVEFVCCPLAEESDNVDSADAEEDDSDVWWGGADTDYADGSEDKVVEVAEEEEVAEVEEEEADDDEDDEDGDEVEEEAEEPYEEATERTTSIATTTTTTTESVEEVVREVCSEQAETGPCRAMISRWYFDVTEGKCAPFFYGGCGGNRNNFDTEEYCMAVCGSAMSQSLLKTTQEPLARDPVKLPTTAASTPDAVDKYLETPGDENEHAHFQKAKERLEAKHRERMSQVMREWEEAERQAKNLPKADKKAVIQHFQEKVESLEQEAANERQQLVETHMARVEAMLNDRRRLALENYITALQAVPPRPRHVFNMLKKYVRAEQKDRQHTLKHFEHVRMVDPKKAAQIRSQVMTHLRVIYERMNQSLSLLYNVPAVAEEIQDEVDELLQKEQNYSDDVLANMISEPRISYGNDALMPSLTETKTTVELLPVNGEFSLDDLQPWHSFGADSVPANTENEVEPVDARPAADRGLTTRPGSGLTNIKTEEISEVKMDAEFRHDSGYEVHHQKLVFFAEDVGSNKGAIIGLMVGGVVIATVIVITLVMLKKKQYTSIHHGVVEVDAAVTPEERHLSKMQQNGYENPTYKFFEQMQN
Cholinesterase, sequence (P06276 whole entry): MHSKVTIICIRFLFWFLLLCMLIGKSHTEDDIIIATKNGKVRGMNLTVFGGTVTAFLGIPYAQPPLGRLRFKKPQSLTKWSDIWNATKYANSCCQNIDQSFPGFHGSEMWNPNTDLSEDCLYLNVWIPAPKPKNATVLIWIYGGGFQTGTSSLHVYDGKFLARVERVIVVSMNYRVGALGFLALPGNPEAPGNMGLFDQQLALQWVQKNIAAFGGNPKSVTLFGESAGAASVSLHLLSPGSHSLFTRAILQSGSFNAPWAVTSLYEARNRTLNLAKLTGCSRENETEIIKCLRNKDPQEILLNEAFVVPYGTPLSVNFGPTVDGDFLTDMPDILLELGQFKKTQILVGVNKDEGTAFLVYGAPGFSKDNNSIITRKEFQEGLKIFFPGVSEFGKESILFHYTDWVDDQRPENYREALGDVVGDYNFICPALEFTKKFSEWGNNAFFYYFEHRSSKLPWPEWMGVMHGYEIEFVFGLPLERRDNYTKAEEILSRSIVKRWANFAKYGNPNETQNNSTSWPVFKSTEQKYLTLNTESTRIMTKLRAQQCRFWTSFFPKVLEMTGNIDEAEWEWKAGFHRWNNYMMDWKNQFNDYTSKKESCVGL

COc1ccc2cc(C(=O)NCCCCCCCNc3c4c(nc5ccccc35)CCCC4)c(=O)oc2c1
Ki [1]: 55.2 nM | Ki [2]: 35 nM

Cc1ccc2oc(=O)c(C(=O)NCCCCCCCNc3c4c(nc5ccccc35)CCCC4)cc2c1
IC50 [3]: 6100 nM | Ki [1]: 66.1 nM | Ki [2]: 50.9 nM | IC50 [4]: 42800 nM

O=C(NCCCCCCNc1c2c(nc3ccccc13)CCCC2)c1cc2cc(OC(F)(F)F)ccc2oc1=O
IC50 [3]: 24200 nM | Ki [1]: 59.6 nM | Ki [2]: 17.5 nM | IC50 [4]: 22600 nM

O=C(NCCCCCNc1c2c(nc3ccccc13)CCCC2)c1cc2cc(OC(F)(F)F)ccc2oc1=O
Ki [1]: 76.1 nM | Ki [2]: 32.5 nM

COc1cc2cc(C(=O)NCCCCCNc3c4c(nc5ccccc35)CCCC4)c(=O)oc2cc1OC
Ki [1]: 70 nM | Ki [2]: 8.1 nM

O=C(NCCCCCCNc1c2c(nc3ccccc13)CCCC2)c1cc2ccccc2oc1=O
IC50 [3]: > 100000 nM | Ki [1]: 16.7 nM | Ki [2]: 16.1 nM | IC50 [4]: 17200 nM

COc1ccc2cc(C(=O)NCCCCCCNc3c4c(nc5ccccc35)CCCC4)c(=O)oc2c1
Ki [1]: 30.9 nM | Ki [2]: 20.2 nM

COc1ccc2oc(=O)c(C(=O)NCCCCCCNc3c4c(nc5ccccc35)CCCC4)cc2c1
Ki [1]: 24.3 nM | Ki [2]: 23.7 nM

COc1cc2cc(C(=O)NCCCCCCCNc3c4c(nc5ccccc35)CCCC4)c(=O)oc2cc1OC
Ki [1]: 91.1 nM | Ki [2]: 37.5 nM

O=C(NCCCCCCCNc1c2c(nc3ccccc13)CCCC2)c1cc2ccccc2oc1=O
Ki [1]: 42.2 nM | Ki [2]: 20 nM

COc1ccc2oc(=O)c(C(=O)NCCCCCNc3c4c(nc5ccccc35)CCCC4)cc2c1
Ki [1]: 39.4 nM | Ki [2]: 34 nM

COc1ccc2oc(=O)c(C(=O)NCCCCCCCNc3c4c(nc5ccccc35)CCCC4)cc2c1
IC50 [3]: 13400 nM | Ki [1]: 50.7 nM | Ki [2]: 34.5 nM | IC50 [4]: 20200 nM

COc1ccc2cc(C(=O)NCCCCCNc3c4c(nc5ccccc35)CCCC4)c(=O)oc2c1
Ki [1]: 44.3 nM | Ki [2]: 29.8 nM

O=C(NCCCCCCCNc1c2c(nc3ccccc13)CCCC2)c1cc2cc(OC(F)(F)F)ccc2oc1=O
Ki [1]: 78.2 nM | Ki [2]: 40 nM

Cc1ccc2oc(=O)c(C(=O)NCCCCCNc3c4c(nc5ccccc35)CCCC4)cc2c1
Ki [1]: 35.8 nM | Ki [2]: 32.4 nM

O=C(NCCCCCNc1c2c(nc3ccccc13)CCCC2)c1cc2ccccc2oc1=O
IC50 [3]: > 100000 nM | Ki [1]: 34.4 nM | Ki [2]: 31.7 nM | IC50 [4]: 40100 nM

COc1cc2cc(C(=O)NCCCCCCNc3c4c(nc5ccccc35)CCCC4)c(=O)oc2cc1OC
Ki [1]: 56.1 nM | Ki [2]: 31.2 nM

Cc1ccc2oc(=O)c(C(=O)NCCCCCCNc3c4c(nc5ccccc35)CCCC4)cc2c1
IC50 [3]: 5000 nM | Ki [1]: 30.1 nM | Ki [2]: 23.2 nM | IC50 [4]: > 100000 nM

Reference: ChEMBL document CHEMBL3352817, “Syntheses of coumarin-tacrine hybrids as dual-site acetylcholinesterase inhibitors and their activity against butylcholinesterase, Aβ aggregation, and β-secretase” (Bioorg Med Chem, 2014)
